Drawing on article PMC10788917 (Journal of Medicinal Chemistry, 2023), this text covers IC50 for ten compounds.

The target in this test is T1, HDAC8 Cys102Ser/Cys153Ser/Cys28Ser (Homo sapiens, UniProt Q9BY41, C102S/C153S/C28S).
T1 construct: made in house
T1 sequence (Q9BY41 1-377 C28S/C102S/C153S): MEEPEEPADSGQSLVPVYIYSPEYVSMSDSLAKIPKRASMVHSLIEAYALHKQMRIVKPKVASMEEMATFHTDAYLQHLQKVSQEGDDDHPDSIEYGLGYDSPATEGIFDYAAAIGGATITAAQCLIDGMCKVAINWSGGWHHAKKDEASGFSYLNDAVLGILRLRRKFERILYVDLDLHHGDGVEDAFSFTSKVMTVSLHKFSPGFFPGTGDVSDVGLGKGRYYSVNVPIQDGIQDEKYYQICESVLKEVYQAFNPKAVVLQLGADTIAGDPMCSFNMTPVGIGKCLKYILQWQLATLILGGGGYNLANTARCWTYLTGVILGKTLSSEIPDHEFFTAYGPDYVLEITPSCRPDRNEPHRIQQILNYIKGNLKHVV
Description: HDAC8 mutant biochemical assay. Particulars: read-out: IC50 [μM] @ 100 nM HDAC8: B Cys102Ser/Cys153Ser/Cys28Ser, 1 h preincubation. As for the experimental part: HDAC8 mutant variants were generated, produced, and further purified as described previously.[32] Cysteines 28 and 314 were exchanged with serine using the following primer pairs: HD8_C28S_for, […]; HD8_C28S_rev, […]; HD8_C314S_for, […]; HD8_C314S_rev, […].
The enzyme activity assay was performed in assay buffer [25 mM Tris-HCl (pH 8.0), 50 mM NaCl, and 0.001% (v/v) Pluronic F-68] in black half-area 96-well microplates (Greiner Bio-One). For the initial screening, 10 nM HDAC8 was preincubated with the indicated compounds at 250 μM for 2 h at 30 °C. […] The reaction was initiated by the addition of 20 μM Boc-Lys(TFA)-AMC (Bachem). After substrate conversion at 30 °C for 15 min for HDAC8 and 1 h for HDAC8 mutants and HDAC4, the reaction was stopped by adding 1.67 μM suberoylanilide trifluoromethylketone (SATFMK). The deacetylated substrate was cleaved with 0.42 mg/mL trypsin to release fluorescent 7-amino-4-methylcoumarin (AMC), which was detected with a microplate reader (PHERAstar FS […]) with fluorescence excitation at 360 nm and emission at 460 nm. IC50 values were calculated by generating dose–response curves in GraphPad Prism 6 and fitting those to a four-parameter logistic model.
For `C[n+]1ccccc1I` [A3+], the IC50 is > 130 µM.
The same measure for `C[n+]1ccc(I)cc1` [C3+]: > 130 µM.
Then `C#Cc1cc[n+](C)cc1` [C6+], with 67 ± 6 µM.
Then `C[n+]1cccnc1Cl` [D1+], with > 130 µM.
With `C[n+]1cccnc1Br` [D2+], the IC50 is > 130 µM.
Take `C[n+]1cccnc1I` [D3+]: the IC50 was 62 ± 3 µM.
As to `C#Cc1nccc[n+]1C` [D6+], the IC50 is > 130 µM.
Then `C[n+]1cncc(Br)c1` [F2+], with > 130 µM; and `C[n+]1cncc(I)c1` [F3+], with > 130 µM.
Then `C#Cc1c[n+](C)ccn1` [G6+], with 106 ± 10 µM.
